Data taken from ChEMBL document CHEMBL1139075, “Synthesis and antitubercular activity of quaternized promazine and promethazine derivatives” (Bioorg Med Chem Lett, 2007).

Legend:
[1] = system: Mycobacterium tuberculosis; experiment: Antitubercular activity against non-replicating Mycobacterium tuberculosis H37Rv by LORA; type: functional
[2] = system: Mycobacterium tuberculosis; experiment: Antitubercular activity against actively growing Mycobacterium tuberculosis H37Rv by microplate alamar blue assay; type: functional
[3] = system: Vero; experiment: Cytotoxicity against Vero cells after 3 days; type: cell-based; details: Chlorocebus sabaeus, 72 h

C[N+](C)(CCCN1c2ccccc2Sc2ccc(Cl)cc21)Cc1ccc([N+](=O)[O-])cc1 was tested, and the MIC [1] was 27.5 µM and the MIC [2] was 12.3 µM.
For CC(CN1c2ccccc2Sc2ccccc21)[N+](C)(C)Cc1ccc([N+](=O)[O-])cc1 (stereo unspecified), the MIC [1] was > 128 µM and the MIC [2] was 20.7 µM.
In the case of C[N+](C)(CCCN1c2ccccc2Sc2ccccc21)Cc1ccc(Cl)cc1, the IC50 [3] is reported as > 64 µM, the MIC [1] is reported as 15.4 µM and the MIC [2] is reported as 9.31 µM.
Work on C[N+](C)(CCCN1c2ccccc2Sc2ccccc21)Cc1ccccc1Cl yielded an MIC [1] of 24.6 µM and an MIC [2] of 14.3 µM.
C[N+](C)(CCCN1c2ccccc2Sc2ccccc21)Cc1ccc(F)cc1 gave an MIC [1] of 32.9 µM and an MIC [2] of 14.6 µM.
Work on COc1ccc(C[N+](C)(C)C(C)CN2c3ccccc3Sc3ccccc32)cc1 (stereo unspecified) yielded an MIC [1] of 105 µM and an MIC [2] of 14.4 µM.
In the case of Cc1ccc(C[N+](C)(C)CCCN2c3ccccc3Sc3ccccc32)cc1, the IC50 [3] is reported as > 128 µM, the MIC [1] is reported as 15 µM and the MIC [2] is reported as 9.9 µM.
For C[N+](C)(CCCN1c2ccccc2Sc2ccc(Cl)cc21)Cc1ccccc1, the IC50 [3] was > 128 µM, the MIC [1] was 11.1 µM and the MIC [2] was 7.33 µM.
With C[N+](C)(CCCN1c2ccccc2Sc2ccc(C(F)(F)F)cc21)Cc1ccccc1Cl the IC50 [3] was > 128 µM, the MIC [1] was 7.5 µM and the MIC [2] was 7.3 µM.
C[N+](C)(CCCN1c2ccccc2Sc2ccc(C(F)(F)F)cc21)Cc1ccc(F)cc1 was tested, and the IC50 [3] was > 128 µM, the MIC [1] was 10 µM and the MIC [2] was 6.4 µM.
In the case of C[N+](C)(CCCN1c2ccccc2Sc2ccc(Cl)cc21)Cc1cccc(Cl)c1, the IC50 [3] is reported as > 128 µM, the MIC [1] is reported as 6.7 µM and the MIC [2] is reported as 4.5 µM.
For C[N+](C)(CCCN1c2ccccc2Sc2ccc(Cl)cc21)Cc1ccc(F)cc1, the IC50 [3] was > 128 µM, the MIC [1] was 13.7 µM and the MIC [2] was 7.6 µM.
In the case of Cc1ccc(C[N+](C)(C)CCCN2c3ccccc3Sc3ccc(C(F)(F)F)cc32)cc1, the IC50 [3] is reported as > 128 µM, the MIC [1] is reported as 6.9 µM and the MIC [2] is reported as 6.8 µM.
CC(CN1c2ccccc2Sc2ccccc21)[N+](C)(C)Cc1ccccc1 (stereo unspecified) showed an MIC [1] of 99.7 µM and an MIC [2] of 31.6 µM.
In the case of C[N+](C)(CCCN1c2ccccc2Sc2ccc(C(F)(F)F)cc21)Cc1ccc(Cl)cc1, the IC50 [3] is reported as > 128 µM, the MIC [1] is reported as 6.1 µM and the MIC [2] is reported as 3.81 µM.
For C[N+](C)(CCCN1c2ccccc2Sc2ccc(Cl)cc21)Cc1ccc(Cl)cc1, the IC50 [3] was > 128 µM, the MIC [1] was 6.7 µM and the MIC [2] was 6.06 µM.
C[N+](C)(CCCN1c2ccccc2Sc2ccc(Cl)cc21)Cc1ccccc1Cl was tested, and the IC50 [3] was > 128 µM, the MIC [1] was 7.6 µM and the MIC [2] was 5.6 µM.
Cc1ccc(C[N+](C)(C)CCCN2c3ccccc3Sc3ccc(Cl)cc32)cc1 was tested, and the IC50 [3] was > 128 µM, the MIC [1] was 7.5 µM and the MIC [2] was 4.7 µM.
In the case of C[N+](C)(CCCN1c2ccccc2Sc2ccccc21)Cc1cccc(Cl)c1, the IC50 [3] is reported as > 128 µM, the MIC [1] is reported as 13 µM and the MIC [2] is reported as 7.5 µM.
Cc1ccc(C[N+](C)(C)C(C)CN2c3ccccc3Sc3ccccc32)cc1 (stereo unspecified) was tested, and the MIC [1] was 34.7 µM and the MIC [2] was 12.1 µM.
In the case of C[N+](C)(CCCN1c2ccccc2Sc2ccc(C(F)(F)F)cc21)Cc1cccc(Cl)c1, the IC50 [3] is reported as > 128 µM, the MIC [1] is reported as 5.8 µM and the MIC [2] is reported as 3.8 µM.
For COc1ccc(C[N+](C)(C)CCCN2c3ccccc3Sc3ccc(Cl)cc32)cc1, the IC50 [3] was > 128 µM, the MIC [1] was 11.9 µM and the MIC [2] was 8.5 µM.
With C=CC[N+](C)(C)CCCN1c2ccccc2Sc2ccc(Cl)cc21 the MIC [1] was 106 µM and the MIC [2] was 30.6 µM.
